The source of these data is publication PMC10409285 (PLOS Pathogens, 2023).

Where two headings read alike, the source gives them in different places. No end group written: not given here.

This experiment concerns the target DP4.1 (HLA-DPA1*01:03/DPB1*04:01) (Homo sapiens, UniProt P04440+P20036). Description: fluorescence polarization competition binding assay, DP4.1. (Fluorescence polarisation rises when a labelled molecule tumbles more slowly, as on binding a larger partner.)
[1] abbreviates: fluorescence polarization competition, soluble DP4.1-Clip 250 nM, 25 nM Alexa488 oxytocinase probe peptide, 500 nM HLA-DM, 24 h 37°C, mean of two independent experiments, read-out: Mean IC50, DPA*01:03/DPB1*04:01.

On to `CC[C@H](C)[C@H](NC(=O)[C@H](Cc1ccccc1)NC(=O)[C@H](CO)NC(=O)[C@H](CCCNC(=N)N)NC(=O)[C@H](CCCCN)NC(=O)[C@H](CO)NC(=O)[C@@H]1CCCN1C(=O)[C@@H](N)CCCCN)C(=O)N[C@@H](CCC(=O)O)C(=O)N[C@@H](CC(=O)O)C(=O)N[C@@H](CC(C)C)C(=O)N[C@@H](CC(C)C)C(=O)N[C@@H](Cc1ccccc1)C(=O)N[C@@H](CC(N)=O)C(=O)N[C@@H](CCCCN)C(=O)N[C@H](C(=O)O)C(C)C` [S#163 (CoV2)], for which the IC50 under setting [1] came to 0.29 µM.

Consider `CC[C@H](C)[C@H](NC(=O)[C@H](CO)NC(=O)[C@H](CCC(N)=O)NC(=O)[C@H](CO)NC(=O)[C@H](C)NC(=O)[C@@H](NC(=O)[C@@H](N)CO)C(C)C)C(=O)N[C@H](C(=O)N[C@@H](C)C(=O)N[C@@H](Cc1ccc(O)cc1)C(=O)N[C@H](C(=O)N[C@@H](CCSC)C(=O)N[C@@H](CO)C(=O)N[C@@H](CC(C)C)C(=O)NCC(=O)N[C@@H](C)C(=O)O)[C@@H](C)O)[C@@H](C)CC` [S#138 (CoV2)], for which the IC50 under setting [1] is 438 µM.

Compound `CC[C@H](C)[C@H](NC(=O)CNC(=O)[C@H](CC(N)=O)NC(=O)[C@@H](NC(=O)[C@H](Cc1ccccc1)NC(=O)[C@H](CC(=O)O)NC(=O)[C@H](CO)NC(=O)[C@@H](N)CC(C)C)[C@@H](C)CC)C(=O)N[C@@H](Cc1ccccc1)C(=O)N[C@@H](C)C(=O)N[C@@H](CCCCN)C(=O)N[C@H](C(=O)N[C@@H](CCCCN)C(=O)N[C@@H](CC(N)=O)C(=O)N[C@H](C(=O)N[C@@H](CCCCN)C(=O)O)[C@@H](C)O)C(C)C` [Peptide P3] came in with an IC50 of 3.16 µM.

Consider NRGRQFYEFYNDVKPP [Peptide P14], for which the IC50 worked out at 5.14 µM.

Take `CC[C@H](C)[C@H](NC(=O)[C@H](Cc1ccccc1)NC(=O)[C@@H](N)CO)C(=O)N[C@@H](CCC(=O)O)C(=O)N[C@@H](CC(=O)O)C(=O)N[C@@H](CC(C)C)C(=O)N[C@@H](CC(C)C)C(=O)N[C@@H](Cc1ccccc1)C(=O)N[C@@H](CC(N)=O)C(=O)N[C@@H](CCCCN)C(=O)N[C@H](C(=O)N[C@H](C(=O)N[C@@H](CC(C)C)C(=O)N[C@@H](C)C(=O)N[C@@H](CC(=O)O)C(=O)N[C@@H](C)C(=O)O)[C@@H](C)O)C(C)C` [S#164 (CoV2)]: the IC50 under setting [1] stood at 128 µM.

Turning to YVYSRVKNLNSSRVPDL [E#9 (CoV2)], the IC50 under setting [1] amounted to 661 µM.

Take `CC[C@H](C)[C@H](NC(=O)[C@H](C)NC(=O)[C@H](CO)NC(=O)[C@H](CCCNC(=N)N)NC(=O)CNC(=O)[C@H](C)NC(=O)[C@@H](NC(=O)[C@@H](N)CCCNC(=N)N)C(C)C)C(=O)N[C@@H](CCC(=O)O)C(=O)N[C@@H](CC(=O)O)C(=O)N[C@H](C(=O)N[C@@H](CC(C)C)C(=O)N[C@@H](Cc1ccccc1)C(=O)N[C@@H](CO)C(=O)N[C@@H](CCCCN)C(=O)N[C@@H](CC(C)C)C(=O)N[C@H](C(=O)O)C(C)C)[C@@H](C)CC` [Peptide 229E-115]: the IC50 stood at 5.99 µM.

Compound `CC[C@H](C)[C@H](NC(=O)[C@H](C)NC(=O)[C@H](CO)NC(=O)[C@@H](N)CCCNC(=N)N)C(=O)N[C@@H](CCC(=O)O)C(=O)N[C@@H](CC(=O)O)C(=O)N[C@@H](CC(C)C)C(=O)N[C@@H](CC(C)C)C(=O)N[C@@H](Cc1ccccc1)C(=O)N[C@@H](CC(=O)O)C(=O)N[C@@H](CCCCN)C(=O)N[C@H](C(=O)N[C@@H](CCCCN)C(=O)N[C@@H](CC(C)C)C(=O)N[C@@H](CO)C(=O)O)C(C)C` [Peptide P4] registered an IC50 of 2.99 µM.

Consider `CC(C)C[C@H](NC(=O)CNC(=O)[C@H](CO)NC(=O)[C@@H](NC(=O)[C@@H](NC(=O)[C@@H](NC(=O)[C@H](CCCCN)NC(=O)[C@H](CO)NC(=O)[C@H](Cc1ccccc1)NC(=O)[C@H](CC(C)C)NC(=O)[C@H](CC(C)C)NC(=O)[C@H](CC(=O)O)NC(=O)[C@H](CCC(=O)O)NC(=O)[C@H](CC(C)C)NC(=O)[C@H](C)NC(=O)[C@@H](N)CO)C(C)C)C(C)C)[C@@H](C)O)C(=O)NCC(=O)O` [NL63-146], for which the IC50 was found to be 3.48 µM.
